Laboratory results reported in paper PMC3914206.

Tests used:
panel of 442 kinases [1] = target: T1, panel of 442 kinases (Homo sapiens, UniProt Q9UL54); assay type: binding; details: kinase TAOK2; compound concentration 10 µM
T1 construct: purchased KINOMEscan
T1 sequence (Q9UL54 1-1235): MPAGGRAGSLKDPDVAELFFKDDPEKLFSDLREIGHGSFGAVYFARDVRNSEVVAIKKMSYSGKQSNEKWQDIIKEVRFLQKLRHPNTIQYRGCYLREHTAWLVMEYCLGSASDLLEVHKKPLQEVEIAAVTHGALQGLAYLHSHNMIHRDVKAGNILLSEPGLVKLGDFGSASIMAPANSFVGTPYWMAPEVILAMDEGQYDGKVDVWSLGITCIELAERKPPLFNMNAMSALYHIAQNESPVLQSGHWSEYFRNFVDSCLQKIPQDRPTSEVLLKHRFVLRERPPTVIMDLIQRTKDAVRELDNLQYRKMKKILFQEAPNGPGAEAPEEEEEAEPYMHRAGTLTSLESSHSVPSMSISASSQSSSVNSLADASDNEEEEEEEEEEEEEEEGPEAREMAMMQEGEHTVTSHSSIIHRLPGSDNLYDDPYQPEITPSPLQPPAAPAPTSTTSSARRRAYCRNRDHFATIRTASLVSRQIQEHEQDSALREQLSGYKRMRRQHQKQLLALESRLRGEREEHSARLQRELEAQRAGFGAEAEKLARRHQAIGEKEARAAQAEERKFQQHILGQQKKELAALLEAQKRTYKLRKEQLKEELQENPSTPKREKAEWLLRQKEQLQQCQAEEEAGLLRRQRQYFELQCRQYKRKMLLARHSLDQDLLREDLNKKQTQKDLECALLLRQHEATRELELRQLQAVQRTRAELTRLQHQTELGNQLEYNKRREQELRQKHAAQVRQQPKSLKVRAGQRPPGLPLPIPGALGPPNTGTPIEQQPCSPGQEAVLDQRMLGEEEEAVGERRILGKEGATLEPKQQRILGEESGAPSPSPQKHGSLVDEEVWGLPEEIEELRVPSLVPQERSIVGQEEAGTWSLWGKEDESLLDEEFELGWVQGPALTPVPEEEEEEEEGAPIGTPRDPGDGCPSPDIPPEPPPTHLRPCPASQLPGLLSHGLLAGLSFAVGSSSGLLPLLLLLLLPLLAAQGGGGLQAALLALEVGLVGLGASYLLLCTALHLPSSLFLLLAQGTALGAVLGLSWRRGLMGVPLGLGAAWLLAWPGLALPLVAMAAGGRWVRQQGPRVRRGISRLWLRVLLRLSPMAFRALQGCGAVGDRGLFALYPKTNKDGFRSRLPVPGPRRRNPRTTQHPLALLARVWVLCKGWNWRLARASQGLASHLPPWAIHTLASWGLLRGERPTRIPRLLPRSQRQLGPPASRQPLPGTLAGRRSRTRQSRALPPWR
From the text: (§1) We assessed the selectivity of members of this scaffold using the KINOMEscan methodology across a near comprehensive panel of 442 kinases [[18,27]].

panel of 442 kinases [2] = target: T2, panel of 442 kinases (Homo sapiens, UniProt P48730); assay type: binding; details: Compound Concentration 10 µM
T2 construct: purchased KINOMEscan
From the text: as §1

T2 sequence (P48730 whole entry): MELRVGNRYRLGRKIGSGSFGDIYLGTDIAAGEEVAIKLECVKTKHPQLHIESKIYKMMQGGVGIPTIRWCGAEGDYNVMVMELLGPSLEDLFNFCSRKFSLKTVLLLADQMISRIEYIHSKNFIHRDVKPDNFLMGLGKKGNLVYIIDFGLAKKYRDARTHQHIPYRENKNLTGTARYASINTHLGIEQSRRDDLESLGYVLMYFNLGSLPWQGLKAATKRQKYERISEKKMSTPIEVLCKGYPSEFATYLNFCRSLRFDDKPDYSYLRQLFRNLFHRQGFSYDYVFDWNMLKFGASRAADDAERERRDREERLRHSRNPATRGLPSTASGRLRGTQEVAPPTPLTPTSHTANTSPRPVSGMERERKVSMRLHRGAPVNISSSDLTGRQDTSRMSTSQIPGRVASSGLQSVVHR

## COc1cc(C(=O)N2CCC(N3CCN(C)CC3)CC2)ccc1Nc1ncc2c(n1)N(C)c1ccccc1C(=O)N2C [15 (LRRK2-IN-1)]
Panel of 442 kinases [1]
  % Ctrl, TAOK2: 65 % Ctrl
Panel of 442 kinases [2]
  KINOMEscan: CSNK1D: 81

## CCOc1cc(C(=O)N2CCC(N3CCN(C)CC3)CC2)ccc1Nc1ncc2c(n1)N(C1CCCC1)c1ccccc1C(=O)N2C [Compound 26]
Panel of 442 kinases [1]
  % Ctrl, TAOK2: 78 % Ctrl
Panel of 442 kinases [2]
  KINOMEscan: CSNK1D: 100

## COc1cc(C(=O)N2CCC(N3CCN(C)CC3)CC2)ccc1Nc1ncc2c(n1)N1CCc3cccc(c31)C(=O)N2C [Compound 24]
Panel of 442 kinases [1]
  % Ctrl, TAOK2: 100 % Ctrl
Panel of 442 kinases [2]
  KINOMEscan: CSNK1D: 60

## COc1cc(C(=O)N2CCC(N3CCN(C)CC3)CC2)ccc1Nc1ncc2c(n1)N(C1CCCC1)c1ccccc1C(=O)N2C [Compound 25, 11-cyclopentyl-2-((2-methoxy-4-(4-(4-methylpiperazin-1-yl)piperidine-1-carbonyl)phenyl)amino)-5-methyl-5H-benzo[e]pyrimido[5,4-b][1,4]diazepin-6(11H)-one]
Panel of 442 kinases [1]
  % Ctrl, TAOK2: 74 % Ctrl
Panel of 442 kinases [2]
  KINOMEscan: CSNK1D: 98
